Experimental data as given in patent US20160038505A1, “METHODS AND COMPOSITIONS FOR TREATING IMPULSE CONTROL DISORDER, ANXIETY-RELATED DISORDERS, VIOLENCE AND/OR ANGER, OR REGULATING FOOD INTAKE” (priority 2014, published 2016).

What was measured:
[1] = tested on: Sprague-Dawley rat; experiment: Single dose toxicity in rats; format: in vivo
Method: The objective of this study was to determine the toxicity and toxicokinetic profile of noribogaine HCl following a single oral (gavage) administration in the Sprague-Dawley rat. A single dose of 100, 300 and 800 mg/kg (achieved with doses of 400 mg/kg 3 h+/−30 min apart because of the limitations of maximum dose formulation concentration). Five male rats/group were used. […] Hypoactivity, vocalization, chewing movements, changes in respiration/posture, salivation, stimuli sensitivity, tremors, twitches and penile erection occurred prior to death. […] The NOAEL was determined to be 100 mg/kg.

[2] = tested on: Sprague-Dawley rats; experiment: Fourteen day repeat dose toxicity in rats; format: in vivo, rat
Method: This study was conducted to evaluate the toxicity profile of noribogaine-HCl following oral (gavage) administration to the rat for 14 days following Table 2 below:
Male and female Sprague-Dawley rats, 10/sex/group, were administered 0, 25, 50 or 100 mg/kg noribogaine HCl daily by single oral gavage for 14 days. An additional 5 rats/sex/group in the 0 (control) and 100 mg/kg groups were retained for a 28 day recovery period during which no drug was administered. Six rats/sex/group (3 rats/sex controls) were similarly dosed and sampled on study days 1 and 14 for analysis of noribogaine-HCl concentrations in the blood.

[3] = tested on: dogs; experiment: Fourteen day repeat dose toxicity in dogs; format: in vivo, dog
Method: The objective of this study was to determine the toxicity profile of noribogaine HCl given following oral (gavage) administration to dogs for 14 days according to the following Table 3 below:
Noribogaine HCl was administered to groups of 4 male and 4 female dogs by single oral gavage daily for 14 days at doses of 0, 0.5, 1.0 and 5.0 mg/kg/day. An additional group of 4 male and 4 female dogs received either the vehicle control or 5.0 mg/kg/day for 14 days and were held for an additional 28 days after cessation of dosing to assess recovery from any potential drug-induced changes. The study was conducted under GLP guidelines and included comprehensive examinations of clinical signs, body weight, clinical pathology parameters, ophthalmologic examinations, ECG recordings and analyses of plasma for bioanalytical measurement of drug levels at appropriate intervals during the study. At the termination of the dosing phase and at the termination of the recovery phase, all dogs were subjected to a complete post-mortem examination including gross examination of major organs and histologic examination of an extensive list of tissues. Additional sections of brain were obtained from cerebrum, cerebellus, brain stem and spinal cord and examined histologically to evaluate potential effects on brain histopathology. In addition, these sections were examined with immunohistochemical stains for GFAP for evidence of gliosis and Calbindin for a more comprehensive examination of cerebellar Purkinje cells.

[4] = Human pharmacokinetic study, single oral tablet, fasting healthy volunteers (serum); format: in vivo; details: 3 mg, 10 mg, 30 mg or 60 mg single oral tablet
Method: In double blind studies, fasting healthy volunteers (6 per cohort) were treated once orally with a tablet of noribogaine HCl. In escalating cohorts, the volunteers received 3 mg, 10 mg, 30 mg or 60 mg noribogaine.

[5] = Pharmacokinetics of noribogaine in healthy male volunteers (plasma, urine, LCMSMS); details: for AUC0-216 / AUC0-∞ / Cmax / Tmax / t1/2: mean (SD), n = 6
[6] = glucuronide in plasma after 30 mg noribogaine
[7] = glucuronide in plasma after 60 mg noribogaine

With `CC[C@@H]1C[C@H]2CC3c4[nH]c5ccc(O)cc5c4CCN(C2)C31.Cl` [noribogaine HCl] the clinical signs ([1]; 100 mg/kg single oral) was “did not show any treatment related signs”, the clinical signs ([1]; 300 mg/kg single oral, persisted until Day 2 in 3/5 rats) was “Hypoactivity, vocalization, salivation, stimuli sensitivity, loss of limb function and lying on the cage floor” and the mortality ([1]; 800 mg/kg oral gavage (2 x 400 mg/kg 3 h apart), male rats) was “Mortality occurred in all male rats”. For the same compound, the NOAEL ([1]; single oral dose, male rats) was 100 mg/kg, the body weight change ([2]; 100 mg/kg, females) was −2.6% and the body weight change ([2]; 100 mg/kg, males) was −5.5%. The food consumption change ([2]; 100 mg/kg, males and females) was −4.7%, the “effects on mortality, clinical signs, ophthalmoscopy, hematology, coagulation, clinical chemistry, urinalysis, gross necropsy, histopathology” value ([2]; 25, 50 or 100 mg/kg daily oral gavage for 14 days) was “no test article-related effects” and the “brain sections stained for GFAP or Calbindin” value ([2]; 14 days) was “No treatment-related differences in the brain”. For the same compound, the NOAEL ([2]; 14 days oral, highest dose tested) was 100 mg/kg, the liver weight ([2]; mid- and high dose groups, considered incidental) was “Minor increases in liver weight” and the “lacrimal gland changes (target tissue)” value ([3]; 5 mg/kg/day for 14 days) was “slight to moderate atrophy and degeneration of the acinar cells”. For the same compound, the “lacrimal gland change after recovery” value ([3]; 5 mg/kg/day, 28 days off drug) was “clear evidence of regeneration of this lacrimal gland change”, the “clinical observations, body weights, clinical pathology, ophthalmology, ECG, gross lesions” value ([3]; 0.5, 1.0 and 5.0 mg/kg/day oral for 14 days, dosing or recovery phase) was “No evidence of adverse effect” and the NOAEL ([3]; 14 days oral, based on lacrimal gland changes) was 1 mg/kg/day. For the same compound, the “adverse effects in the trial” value [4] was “no clinically relevant adverse effects”.

With `CC[C@H]1C[C@@H]2C[C@H]3c4[nH]c5ccc(OC6OC(C(=O)O)C(O)C(O)C6O)cc5c4CCN(C2)[C@@H]13` (stereo partly drawn) [Noribogaine glucuronide, noribogaine glucuronide] the “time by which noribogaine glucuronide was detected in all subjects” value ([5]; 30 mg and 60 mg noribogaine dose groups, plasma) was ≤ 0.75 h, the “proportion of noribogaine glucuronide Cmax and AUC relative to noribogaine” value ([5]; both dose groups (30 mg, 60 mg)) was 3-4% and the AUC0-216 [5, 6] was 25.7 (9.1) ng · hr/ml. For the same compound, the “AUC0-∞” value [5, 6] was 25.8 (9.3) ng · hr/ml, the Cmax [5, 6] was 1.8 (0.6) ng/ml and the Tmax [5, 6] was 3.0 (0.6) hr. The t1/2 [5, 6] was 20.6 (4.9) hr, the AUC0-216 [5, 7] was 65.0 (21.5) ng · hr/ml and the “AUC0-∞” value [5, 7] was 67.1 (21.9) ng · hr/ml. For the same compound, the Cmax [5, 7] was 4.1 (1.2) ng/ml, the Tmax [5, 7] was 3.8 (1.2) hr and the t1/2 [5, 7] was 23.1 (3.0) hr. The “time of peak concentrations after noribogaine dosing” value ([5]; glucuronide, 30 mg and 60 mg dose groups, plasma) was 3 to 4 h and the mean half-life ([5]; plasma noribogaine glucuronide, 30 mg and 60 mg dose groups) was 21 to 23 h.
